Experimental data: ChEMBL document CHEMBL5236659, “Design, synthesis and antitumor activity of novel thiophene- triazine derivatives bearing arylurea unit as potent PI3K/mTOR inhibitorss” (Bioorg Med Chem, 2023); call rule not given here

Legend:
[1] = Antiproliferative activity against human U-87 MG cells assessed as inhibition of cell growth incubated for 72 hrs by MTT assay; assay type: functional, cell-based, U-87MG ATCC
[2] = system: HeLa; experiment: Antiproliferative activity against human HeLa cells assessed as inhibition of cell growth incubated for 72 hrs by MTT assay; assay type: functional, cell-based
[3] = system: NCI-H1975; experiment: Antiproliferative activity against human NCI-H1975 cells overexpressing EGFR L858R/T790M mutant assessed as inhibition of cell growth incubated for 72 hrs by MTT assay; assay type: functional, cell-based; settings: NCI-H1975, 72 h
[4] = target: T1, Phosphatidylinositol 4,5-bisphosphate 3-kinase catalytic subunit alpha isoform (Homo sapiens, UniProt P42336); experiment: Inhibition of PI3Kalpha (unknown origin) at 1 uM by kinase-glo luminescent assay relative to control
[5] = system: NCI-H460; experiment: Antiproliferative activity against human NCI-H460 cells assessed as inhibition of cell growth incubated for 72 hrs by MTT assay; assay type: functional, cell-based; settings: NCI-H460, 72 h
[6] = system: A549; experiment: Antiproliferative activity against human A549 cells assessed as inhibition of cell growth incubated for 72 hrs by MTT assay; assay type: functional, cell-based; settings: A549, 72 h
[7] = Antiproliferative activity against human OVCAR-2 cells assessed as inhibition of cell growth incubated for 72 hrs by MTT assay; assay type: functional, cell-based; settings: OVCAR-2, 72 h
[8] = target: T1, Phosphatidylinositol 4,5-bisphosphate 3-kinase catalytic subunit alpha isoform; experiment: Inhibition of PI3Kalpha (unknown origin) by kinase-glo luminescent assay
[9] = system: HeLa; experiment: Antiproliferative activity against paclitaxel-resistant human HeLa cells assessed as inhibition of cell growth incubated for 72 hrs by MTT assay; assay type: functional, cell-based
[10] = system: MCF7; experiment: Antiproliferative activity against human MCF7 cells assessed as inhibition of cell growth incubated for 72 hrs by MTT assay; assay type: functional, cell-based; settings: MCF7, 72 h
[11] = Selectivity ratio of IC50 for antiproliferative activity against human MCF7 cells to IC50 for antiproliferative activity against human U-87 MG cells; assay type: functional
[12] = Selectivity ratio of IC50 for antiproliferative activity against human A549 cells to IC50 for antiproliferative activity against human NCI-H1975 cells overexpressing EGFR L858R/T790M mutant; assay type: functional
[13] = target: Serine/threonine-protein kinase mTOR (Homo sapiens, UniProt P42345); experiment: Inhibition of mTOR (unknown origin) at 1 uM by kinase-glo luminescent assay relative to control
[14] = system: NCI-H2228; experiment: Antiproliferative activity against human NCI-H2228 cells assessed as inhibition of cell growth incubated for 72 hrs by MTT assay; assay type: functional, cell-based
[15] = Selectivity ratio of IC50 for antiproliferative activity against human HeLa cells to IC50 for antiproliferative activity against paclitaxel-resistant human HeLa cells; assay type: functional
[16] = target: RAC-alpha serine/threonine-protein kinase (Homo sapiens) (UniProt P31749); experiment: Inhibition of AKT1 (unknown origin) at 1 uM by kinase-glo luminescent assay relative to control
[17] = target: Epidermal growth factor receptor (Homo sapiens) (UniProt P00533); experiment: Inhibition of EGFR (unknown origin) at 1 uM by kinase-glo luminescent assay relative to control
[18] = target: Vascular endothelial growth factor receptor 2 (Homo sapiens) (UniProt P35968); experiment: Inhibition of KDR (unknown origin) at 1 uM by kinase-glo luminescent assay relative to control
[19] = Hemolytic activity in 2% sheep RBC assessed as hemolysis at 16 to 256 ug/ml incubated for 3 hrs; assay type: toxicity, cell-based, Ovis aries; settings: erythrocyte, dose 16-256 µg/ml
[20] = Cytotoxicity against human L02 cells assessed as inhibition of cell growth incubated for 72 hrs by MTT assay; assay type: toxicity, cell-based
[21] = target: T1, Phosphatidylinositol 4,5-bisphosphate 3-kinase catalytic subunit alpha isoform; experiment: Inhibition of PI3Kalpha in human MCF7 cells assessed as decrease in PI3Kalpha gene expression incubated for 24 hrs by fluorescence quantitative PCR assay; assay type: cell-based; settings: dose 0.8-1.6 µM

T1 sequence (P42336 whole entry, canonical isoform): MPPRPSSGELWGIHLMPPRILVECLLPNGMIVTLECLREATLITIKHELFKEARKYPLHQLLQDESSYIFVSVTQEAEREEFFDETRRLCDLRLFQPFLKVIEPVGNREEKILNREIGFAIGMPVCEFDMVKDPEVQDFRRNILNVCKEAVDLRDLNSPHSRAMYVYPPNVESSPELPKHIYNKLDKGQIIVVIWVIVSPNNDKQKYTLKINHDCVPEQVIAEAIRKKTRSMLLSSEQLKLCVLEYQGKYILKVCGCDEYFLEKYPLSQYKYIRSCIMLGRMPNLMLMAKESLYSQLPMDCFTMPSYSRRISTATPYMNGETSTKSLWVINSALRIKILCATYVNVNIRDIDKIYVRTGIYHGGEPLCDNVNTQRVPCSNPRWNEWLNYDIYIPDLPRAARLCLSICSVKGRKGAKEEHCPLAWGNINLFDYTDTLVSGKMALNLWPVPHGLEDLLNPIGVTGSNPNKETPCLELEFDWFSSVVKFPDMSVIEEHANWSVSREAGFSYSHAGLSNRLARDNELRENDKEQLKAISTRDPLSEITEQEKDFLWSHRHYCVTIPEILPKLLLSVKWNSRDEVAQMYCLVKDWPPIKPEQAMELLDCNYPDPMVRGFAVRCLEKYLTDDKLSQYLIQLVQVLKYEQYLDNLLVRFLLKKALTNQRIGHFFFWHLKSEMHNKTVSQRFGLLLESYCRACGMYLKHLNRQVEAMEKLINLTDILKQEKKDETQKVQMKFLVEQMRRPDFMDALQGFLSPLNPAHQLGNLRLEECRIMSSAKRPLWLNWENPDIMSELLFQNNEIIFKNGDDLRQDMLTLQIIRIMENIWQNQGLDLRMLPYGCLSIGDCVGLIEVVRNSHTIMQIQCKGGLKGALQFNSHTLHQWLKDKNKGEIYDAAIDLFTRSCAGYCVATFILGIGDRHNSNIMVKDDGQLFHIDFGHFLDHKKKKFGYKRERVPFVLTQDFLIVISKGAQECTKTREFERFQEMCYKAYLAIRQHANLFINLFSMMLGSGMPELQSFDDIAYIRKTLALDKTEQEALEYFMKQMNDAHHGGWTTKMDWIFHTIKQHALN
Sequence of Vascular endothelial growth factor receptor 2 (Homo sapiens) (P35968 whole entry): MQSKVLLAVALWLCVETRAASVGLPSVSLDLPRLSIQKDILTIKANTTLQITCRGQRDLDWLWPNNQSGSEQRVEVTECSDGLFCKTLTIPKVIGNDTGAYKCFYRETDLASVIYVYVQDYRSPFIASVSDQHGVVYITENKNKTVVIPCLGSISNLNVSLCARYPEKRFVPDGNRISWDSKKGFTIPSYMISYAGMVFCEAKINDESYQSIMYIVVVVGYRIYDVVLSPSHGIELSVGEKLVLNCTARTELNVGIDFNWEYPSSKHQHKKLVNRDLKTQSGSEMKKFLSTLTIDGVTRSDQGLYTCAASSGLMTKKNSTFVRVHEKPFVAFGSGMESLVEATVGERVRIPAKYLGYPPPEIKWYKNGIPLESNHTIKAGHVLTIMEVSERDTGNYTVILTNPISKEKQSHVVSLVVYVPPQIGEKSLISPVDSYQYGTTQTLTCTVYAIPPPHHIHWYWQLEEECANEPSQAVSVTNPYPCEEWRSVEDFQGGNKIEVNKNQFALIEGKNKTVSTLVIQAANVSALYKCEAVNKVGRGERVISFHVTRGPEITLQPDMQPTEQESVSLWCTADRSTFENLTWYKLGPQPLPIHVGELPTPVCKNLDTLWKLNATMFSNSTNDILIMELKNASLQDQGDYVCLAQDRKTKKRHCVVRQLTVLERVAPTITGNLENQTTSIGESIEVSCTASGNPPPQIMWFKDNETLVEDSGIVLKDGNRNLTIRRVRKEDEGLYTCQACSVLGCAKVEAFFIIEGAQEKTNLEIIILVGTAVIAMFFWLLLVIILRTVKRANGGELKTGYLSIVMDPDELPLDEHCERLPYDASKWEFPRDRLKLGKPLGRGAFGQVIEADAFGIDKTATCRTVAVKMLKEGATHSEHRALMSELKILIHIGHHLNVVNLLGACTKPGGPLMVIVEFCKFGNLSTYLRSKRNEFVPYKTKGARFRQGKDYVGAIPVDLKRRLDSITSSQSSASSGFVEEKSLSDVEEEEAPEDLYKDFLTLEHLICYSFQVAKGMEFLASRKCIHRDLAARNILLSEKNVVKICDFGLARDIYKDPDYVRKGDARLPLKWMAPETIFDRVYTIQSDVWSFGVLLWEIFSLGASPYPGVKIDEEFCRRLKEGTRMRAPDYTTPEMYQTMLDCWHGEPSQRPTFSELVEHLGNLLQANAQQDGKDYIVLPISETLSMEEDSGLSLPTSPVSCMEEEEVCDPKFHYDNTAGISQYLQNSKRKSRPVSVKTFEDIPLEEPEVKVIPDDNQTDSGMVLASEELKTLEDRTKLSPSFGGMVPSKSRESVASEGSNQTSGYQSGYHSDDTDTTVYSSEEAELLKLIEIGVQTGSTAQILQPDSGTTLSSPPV
Sequence of RAC-alpha serine/threonine-protein kinase (Homo sapiens) (P31749 whole entry): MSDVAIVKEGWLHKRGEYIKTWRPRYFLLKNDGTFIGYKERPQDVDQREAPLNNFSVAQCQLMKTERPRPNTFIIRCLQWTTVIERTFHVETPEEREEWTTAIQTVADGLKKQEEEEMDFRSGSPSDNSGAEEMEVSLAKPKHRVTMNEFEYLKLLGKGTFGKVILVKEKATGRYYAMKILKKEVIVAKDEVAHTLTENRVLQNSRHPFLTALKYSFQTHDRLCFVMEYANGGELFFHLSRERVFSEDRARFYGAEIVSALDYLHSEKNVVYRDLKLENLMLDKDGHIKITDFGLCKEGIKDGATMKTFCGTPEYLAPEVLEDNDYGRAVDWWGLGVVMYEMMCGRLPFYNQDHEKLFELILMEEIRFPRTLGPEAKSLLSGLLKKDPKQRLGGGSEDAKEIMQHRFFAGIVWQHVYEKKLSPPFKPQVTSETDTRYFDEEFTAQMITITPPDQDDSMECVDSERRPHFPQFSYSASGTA
Sequence of Epidermal growth factor receptor (Homo sapiens) (P00533 whole entry): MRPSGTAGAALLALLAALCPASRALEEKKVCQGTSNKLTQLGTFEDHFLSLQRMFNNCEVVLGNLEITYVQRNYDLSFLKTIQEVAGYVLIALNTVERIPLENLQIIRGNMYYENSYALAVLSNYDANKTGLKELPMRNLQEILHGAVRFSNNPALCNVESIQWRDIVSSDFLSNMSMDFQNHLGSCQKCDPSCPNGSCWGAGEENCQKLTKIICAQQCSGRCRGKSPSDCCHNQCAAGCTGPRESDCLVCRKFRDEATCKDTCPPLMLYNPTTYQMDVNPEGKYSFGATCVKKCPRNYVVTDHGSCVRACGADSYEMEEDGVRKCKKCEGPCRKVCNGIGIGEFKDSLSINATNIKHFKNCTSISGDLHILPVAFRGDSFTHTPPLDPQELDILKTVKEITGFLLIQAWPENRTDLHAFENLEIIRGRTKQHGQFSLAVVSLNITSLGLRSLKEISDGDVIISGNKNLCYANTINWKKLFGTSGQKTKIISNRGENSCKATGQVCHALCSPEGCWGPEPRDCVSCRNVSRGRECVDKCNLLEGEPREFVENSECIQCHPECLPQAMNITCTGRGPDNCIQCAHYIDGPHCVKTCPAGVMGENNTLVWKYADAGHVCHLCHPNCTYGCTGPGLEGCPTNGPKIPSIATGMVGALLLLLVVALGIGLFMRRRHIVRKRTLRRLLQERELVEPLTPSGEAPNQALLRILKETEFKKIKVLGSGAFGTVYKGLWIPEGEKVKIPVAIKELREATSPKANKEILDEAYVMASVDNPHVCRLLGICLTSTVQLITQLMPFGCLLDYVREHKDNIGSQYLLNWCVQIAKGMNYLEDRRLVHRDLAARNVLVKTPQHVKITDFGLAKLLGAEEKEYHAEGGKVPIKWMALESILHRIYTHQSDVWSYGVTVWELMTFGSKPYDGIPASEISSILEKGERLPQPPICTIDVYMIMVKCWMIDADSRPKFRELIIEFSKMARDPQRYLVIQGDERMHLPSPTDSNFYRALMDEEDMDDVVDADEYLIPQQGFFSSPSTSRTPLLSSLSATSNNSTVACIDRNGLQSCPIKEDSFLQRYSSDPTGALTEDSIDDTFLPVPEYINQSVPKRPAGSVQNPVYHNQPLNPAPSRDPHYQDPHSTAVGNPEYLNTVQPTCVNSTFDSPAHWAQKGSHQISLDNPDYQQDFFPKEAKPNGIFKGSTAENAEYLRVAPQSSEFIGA

## CS(=O)(=O)N1CCN(Cc2ccc(-c3nc(-c4ccc(NC(=O)Nc5ccccn5)cc4)nc(N4CCOCC4)n3)s2)CC1
[1]
  IC50: 10.5 µM
[2]
  IC50: 6.01 µM
[3]
  IC50: 0.076 µM
[4]
  inhibition: 16.1%
[5]
  IC50: 7.57 µM
[6]
  IC50: 10.1 µM
[7]
  IC50: 3.52 µM
[8]
  IC50: 3 µM
[9]
  IC50: 9.27 µM
[10]
  IC50: 3.34 µM

## CS(=O)(=O)N1CCN(Cc2ccc(-c3nc(-c4ccc(NC(=O)Nc5ccncn5)cc4)nc(N4CCOCC4)n3)s2)CC1
[1]
  IC50: 25.2 µM
[11]
  Ratio IC50: 1.21
[2]
  IC50: 28.2 µM
[3]
  IC50: 5.53 µM
[4]
  inhibition: 43.4%
[5]
  IC50: > 100 µM
[12]
  Ratio IC50: 8.12
[6]
  IC50: 44.9 µM
[13]
  inhibition: 86.8%
[7]
  IC50: > 100 µM
[9]
  IC50: > 100 µM
[10]
  IC50: 30.7 µM

## CS(=O)(=O)N1CCN(Cc2ccc(-c3nc(-c4ccc(NC(=O)Nn5cnnc5)cc4)nc(N4CCOCC4)n3)s2)CC1
[1]
  IC50: > 100 µM
[2]
  IC50: 42.8 µM
[3]
  IC50: > 100 µM
[4]
  inhibition: 46.8%
[5]
  IC50: > 100 µM
[6]
  IC50: 50.4 µM
[7]
  IC50: 26.9 µM
[8]
  IC50: 1.74 µM
[9]
  IC50: > 100 µM
[10]
  IC50: 1.82 µM

## CS(=O)(=O)N1CCN(Cc2ccc(-c3nc(-c4ccc(NC(=O)Nc5ncc[nH]5)cc4)nc(N4CCOCC4)n3)s2)CC1
[1]
  IC50: > 100 µM
[2]
  IC50: 7.58 µM
[3]
  IC50: > 100 µM
[4]
  inhibition: 47.7%
[5]
  IC50: 14.3 µM
[6]
  IC50: 48.9 µM
[7]
  IC50: 22.6 µM
[14]; nci-h2228
  IC50: Not Active
[8]
  IC50: 1.79 µM
[9]
  IC50: 38.5 µM
[10]
  IC50: 20.1 µM

## CS(=O)(=O)N1CCN(Cc2ccc(-c3nc(-c4ccc(NC(=O)Nc5ccc6[nH]ncc6c5)cc4)nc(N4CCOCC4)n3)s2)CC1
[1]
  IC50: 15.1 µM
[11]
  Ratio IC50: 0.007
[2]
  IC50: 2.14 µM
[3]
  IC50: 31.2 µM
[4]
  inhibition: 93%
[5]
  IC50: 20.5 µM
[15]
  Ratio IC50: 0.2
[12]
  Ratio IC50: 0.46
[6]
  IC50: 14.2 µM
[13]
  inhibition: 96.4%
[7]
  IC50: 12.6 µM
[9]
  IC50: 10.5 µM
[10]
  IC50: 0.11 µM

## Cn1ccnc1NC(=O)Nc1ccc(-c2nc(-c3ccc(CN4CCN(S(C)(=O)=O)CC4)s3)nc(N3CCOCC3)n2)cc1
[1]
  IC50: > 100 µM
[2]
  IC50: 13.8 µM
[3]
  IC50: 7.86 µM
[5]
  IC50: > 100 µM
[6]
  IC50: 53.9 µM
[9]
  IC50: > 100 µM
[10]
  IC50: > 100 µM

## CS(=O)(=O)N1CCN(Cc2ccc(-c3nc(-c4ccc(NC(=O)Nc5ccncc5)cc4)nc(N4CCOCC4)n3)s2)CC1
[1]
  IC50: 1.25 µM
[16]
  inhibition: 18.2%
[17]
  inhibition: 6.24%
[18]
  inhibition: 1.74%
[2]
  IC50: 1.04 µM
[3]
  IC50: 0.008 µM
[4]
  inhibition: 88.2%
[5]
  IC50: 2.31 µM
[6]
  IC50: 0.47 µM
[19]
  Activity: Non-Toxic
[7]
  IC50: 0.25 µM
[20]
  IC50 at 72 h: > 100 µM
[21]
  inhibition: Dose-Dependent Effect
[14]; Homo sapiens, NCI-H2228, 72 h, read-out: IC50
  IC50: 0.22 µM
[8]
  IC50: 0.177 µM
[9]
  IC50: 0.37 µM
[10]
  IC50: 0.3 µM

## CS(=O)(=O)N1CCN(Cc2ccc(-c3nc(-c4ccc(NC(=O)Nc5nc[nH]n5)cc4)nc(N4CCOCC4)n3)s2)CC1
[1]
  IC50: 18.2 µM
[11]
  Ratio IC50: 0.71
[2]
  IC50: 25.5 µM
[3]
  IC50: 22.5 µM
[4]
  inhibition: 94.5%
[5]
  IC50: > 100 µM
[15]
  Ratio IC50: 1.19
[12]
  Ratio IC50: 0.59
[6]
  IC50: 13.2 µM
[13]
  inhibition: 97.3%
[7]
  IC50: 12.3 µM
[9]
  IC50: 21.4 µM
[10]
  IC50: 13 µM

## CS(=O)(=O)N1CCN(Cc2ccc(-c3nc(-c4ccc(NC(=O)Nc5cncnc5)cc4)nc(N4CCOCC4)n3)s2)CC1
[1]
  IC50: 14.9 µM
[11]
  Ratio IC50: 0.51
[2]
  IC50: 15 µM
[3]
  IC50: 6.78 µM
[5]
  IC50: > 100 µM
[15]
  Ratio IC50: 0.54
[12]
  Ratio IC50: 1.59
[6]
  IC50: 10.8 µM
[7]
  IC50: 20.1 µM
[9]
  IC50: 28 µM
[10]
  IC50: 7.61 µM
